Reference: the NIST ThermoML archive (doi:10.1021/acs.jced.5b00049)

Assay: xn = mol fraction of the nth substance listed
Conditions: Liquid

CCCCCCCCCCCCCC [tetradecane] + O=C=O
Conditions	mass density [kg/m3]
312.99 K, 19070 kPa, x2 = 0.7534	819.95
313 K, 15040 kPa, x2 = 0.7534	811.66
313.01 K, 17010 kPa, x2 = 0.7534	815.79
313.01 K, 18060 kPa, x2 = 0.7534	817.99
313.05 K, 10040 kPa, x2 = 0.7534	799.71
313.05 K, 11940 kPa, x2 = 0.7534	804.49
313.07 K, 10010 kPa, x2 = 0.2469	761.87
313.08 K, 12050 kPa, x2 = 0.2469	763.39
313.08 K, 13990 kPa, x2 = 0.2469	764.87
313.08 K, 16020 kPa, x2 = 0.2469	766.36
313.09 K, 18000 kPa, x2 = 0.2469	767.75
313.11 K, 19000 kPa, x2 = 0.2469	768.47
313.12 K, 13940 kPa, x2 = 0.7534	809.04
313.12 K, 19060 kPa, x2 = 0.8773	833.41
313.13 K, 16010 kPa, x2 = 0.7534	813.59
313.14 K, 13040 kPa, x2 = 0.7534	806.93
313.16 K, 11930 kPa, x2 = 0.5241	778.74
313.16 K, 19060 kPa, x2 = 0.5241	785.72
313.17 K, 12990 kPa, x2 = 0.8773	810.26
313.17 K, 13930 kPa, x2 = 0.5241	780.74
313.17 K, 14050 kPa, x2 = 0.8773	813.95
313.18 K, 16020 kPa, x2 = 0.8773	822.71
313.18 K, 17010 kPa, x2 = 0.8773	826.33
313.19 K, 9970 kPa, x2 = 0.8773	799.39
313.19 K, 10110 kPa, x2 = 0.5241	776.82
313.19 K, 18040 kPa, x2 = 0.8773	829.7
313.2 K, 11990 kPa, x2 = 0.8773	806.52
313.21 K, 18060 kPa, x2 = 0.5241	784.76
313.23 K, 15010 kPa, x2 = 0.8773	818.7
313.35 K, 16050 kPa, x2 = 0.5241	782.84
323.11 K, 10980 kPa, x2 = 0.8773	783.24
323.11 K, 14020 kPa, x2 = 0.2469	757.81
323.11 K, 19020 kPa, x2 = 0.8773	809.81
323.12 K, 16020 kPa, x2 = 0.2469	759.35
323.14 K, 10120 kPa, x2 = 0.2469	754.69
323.14 K, 12060 kPa, x2 = 0.2469	756.22
323.14 K, 13020 kPa, x2 = 0.8773	788.73
323.14 K, 14050 kPa, x2 = 0.8773	791.99
323.14 K, 16040 kPa, x2 = 0.8773	799.2
323.14 K, 17040 kPa, x2 = 0.8773	801.18
323.14 K, 18060 kPa, x2 = 0.8773	805.9
323.14 K, 18980 kPa, x2 = 0.2469	761.61
323.15 K, 10070 kPa, x2 = 0.7534	782.23
323.15 K, 12030 kPa, x2 = 0.7534	787.2
323.15 K, 12050 kPa, x2 = 0.8773	786.07
323.15 K, 13000 kPa, x2 = 0.7534	789.82
323.15 K, 14020 kPa, x2 = 0.7534	791.84
323.15 K, 15060 kPa, x2 = 0.7534	794.75
323.15 K, 16040 kPa, x2 = 0.7534	796.67
323.15 K, 17010 kPa, x2 = 0.7534	799.28
323.15 K, 18070 kPa, x2 = 0.7534	801.5
323.15 K, 19020 kPa, x2 = 0.7534	803.65
323.16 K, 15050 kPa, x2 = 0.8773	795.16
323.19 K, 17960 kPa, x2 = 0.2469	760.81
323.21 K, 16080 kPa, x2 = 0.5241	773.72
323.22 K, 18050 kPa, x2 = 0.5241	775.72
323.22 K, 19040 kPa, x2 = 0.5241	776.7
323.23 K, 10030 kPa, x2 = 0.5241	767.22
323.23 K, 12040 kPa, x2 = 0.5241	769.42
323.23 K, 13980 kPa, x2 = 0.5241	771.51
333.07 K, 10050 kPa, x2 = 0.7534	764.82
333.07 K, 14030 kPa, x2 = 0.7534	774.55
333.07 K, 17060 kPa, x2 = 0.7534	782.56
333.07 K, 18060 kPa, x2 = 0.7534	784.44
333.09 K, 10100 kPa, x2 = 0.5241	757.94
333.11 K, 13040 kPa, x2 = 0.7534	771.85
333.11 K, 16040 kPa, x2 = 0.2469	752.33
333.11 K, 18060 kPa, x2 = 0.5241	766.9
333.11 K, 18060 kPa, x2 = 0.8773	785.49
333.12 K, 15020 kPa, x2 = 0.7534	777.38
333.12 K, 16040 kPa, x2 = 0.7534	779.31
333.13 K, 10010 kPa, x2 = 0.2469	747.3
333.13 K, 13970 kPa, x2 = 0.2469	750.65
333.13 K, 19050 kPa, x2 = 0.8773	788.14
333.13 K, 19080 kPa, x2 = 0.5241	767.96
333.14 K, 16050 kPa, x2 = 0.8773	779.75
333.14 K, 17040 kPa, x2 = 0.8773	782.59
333.15 K, 11930 kPa, x2 = 0.5241	760.02
333.15 K, 12060 kPa, x2 = 0.2469	749.05
333.15 K, 15990 kPa, x2 = 0.5241	764.66
333.15 K, 17980 kPa, x2 = 0.2469	753.84
333.16 K, 18980 kPa, x2 = 0.2469	754.7
333.17 K, 12050 kPa, x2 = 0.7534	769.75
333.17 K, 19050 kPa, x2 = 0.7534	786.81
333.18 K, 14030 kPa, x2 = 0.8773	774.07
333.19 K, 13020 kPa, x2 = 0.8773	771.46
333.2 K, 13970 kPa, x2 = 0.5241	762.35
333.22 K, 15040 kPa, x2 = 0.8773	776.33
343.18 K, 13030 kPa, x2 = 0.7534	757.6
343.2 K, 14070 kPa, x2 = 0.7534	759.71
343.22 K, 10080 kPa, x2 = 0.5241	748.36
343.24 K, 18020 kPa, x2 = 0.2469	746.97
343.25 K, 10080 kPa, x2 = 0.2469	739.8
343.25 K, 12000 kPa, x2 = 0.2469	741.71
343.25 K, 13970 kPa, x2 = 0.5241	753.12
343.26 K, 11930 kPa, x2 = 0.5241	750.66
343.26 K, 17070 kPa, x2 = 0.8773	763.58
343.27 K, 16010 kPa, x2 = 0.2469	745.25
343.27 K, 19050 kPa, x2 = 0.2469	747.79
343.28 K, 16050 kPa, x2 = 0.8773	759.7
343.28 K, 18030 kPa, x2 = 0.7534	768.86
343.29 K, 11990 kPa, x2 = 0.7534	755.9
343.29 K, 15010 kPa, x2 = 0.8773	756.06
343.3 K, 18040 kPa, x2 = 0.8773	766.93
343.32 K, 15970 kPa, x2 = 0.7534	764.11
343.32 K, 19050 kPa, x2 = 0.8773	770.12
343.34 K, 14060 kPa, x2 = 0.2469	743.54
343.34 K, 16930 kPa, x2 = 0.7534	766.37
343.36 K, 18040 kPa, x2 = 0.5241	757.81
343.37 K, 15000 kPa, x2 = 0.7534	761.76
343.37 K, 15990 kPa, x2 = 0.5241	755.45
343.37 K, 19030 kPa, x2 = 0.7534	770.9
343.39 K, 19080 kPa, x2 = 0.5241	758.96
353.36 K, 9980 kPa, x2 = 0.5241	738.86
353.36 K, 12050 kPa, x2 = 0.7534	743.36
353.39 K, 11960 kPa, x2 = 0.5241	741.42
353.39 K, 17030 kPa, x2 = 0.7534	753.15
353.39 K, 18060 kPa, x2 = 0.5241	748.96
353.4 K, 18070 kPa, x2 = 0.2469	741.03
353.41 K, 13000 kPa, x2 = 0.7534	744.77
353.43 K, 11990 kPa, x2 = 0.2469	735.13
353.43 K, 14020 kPa, x2 = 0.5241	744.02
353.43 K, 16060 kPa, x2 = 0.5241	746.56
353.44 K, 19060 kPa, x2 = 0.5241	750.06
353.46 K, 15040 kPa, x2 = 0.7534	748.68
353.46 K, 15990 kPa, x2 = 0.7534	750.82
353.46 K, 18010 kPa, x2 = 0.8773	751.14
353.46 K, 18040 kPa, x2 = 0.7534	755.21
353.47 K, 14010 kPa, x2 = 0.7534	746.82
353.47 K, 19020 kPa, x2 = 0.2469	741.82
353.47 K, 19040 kPa, x2 = 0.8773	754.52
353.48 K, 9970 kPa, x2 = 0.2469	733.1
353.48 K, 14000 kPa, x2 = 0.2469	737.01
353.48 K, 17020 kPa, x2 = 0.8773	747.37
353.52 K, 16030 kPa, x2 = 0.2469	738.93
353.54 K, 18990 kPa, x2 = 0.7534	756.97
